Test results as given in US20220324835A1 (Nurix Therapeutics, Inc., priority 2018, published 2022).

Tests used:
T-cells = test: In vivo activity: CD25 expression on CD4+ or CD8+ T-cells of mice stimulated with anti-CD3 antibody; details: 2 μg anti-CD3 antibody, 24 hours
Protocol: (§1) A method of determining the pharmacodynamic profile of Cbl-b inhibitors was performed by dosing strains of mice with competent immune systems such as C57BL/6 or BALB/c with a Cbl-b inhibitor. The Cbl-b inhibitor was dissolved in a suitable formulation and administered by one of various routes such as intravenous (IV), intraperitoneal (IP), subcutaneous (SC), or oral (PO), at a suitable dose level and frequency (e.g. twice per day BID or thrice per day TID) as informed by prior pharmacokinetic and tolerability studies. Following administration of the Cbl-b inhibitor, T-cells and indirectly other immune cells (e.g. via cytokine production) were stimulated in vivo by administration of an anti-CD3 antibody or antigen-binding fragment thereof in PBS at defined amounts such as 2 μg or 10 μg per animal by routes such as IV or IP (See Hirsh et al., J. Immunol., 1989; Ferran, et al., Eur. J. Immunol., 1990). Additional study control arms included groups of mice treated with a vehicle formulation alone (i.e., formulation without the Cbl-b inhibitor and anti-CD3 antibody), a formulation containing the Cbl-b inhibitor alone, a formulation containing the anti-CD3 antibody alone, PBS alone, or combinations of these agents. The level of immune activation was then assessed by analysis of plasma cytokine levels and/or expression of activation markers on immune cells (e.g. T-cells). Blood or lymphoid organs (e.g. spleen) were collected at defined time points (e.g. 8 hours or 24 hours). Blood samples were processed to collect plasma for determination of cytokine levels using standard methods known in the art. Cytokines measured included IL-2, IFNγ, and TNFα. Additional blood samples and lymphoid tissues were processed for flow cytometric analysis of immune cells (e.g. T-cells) using standard methods to determine expression of cell type-specific markers and activation markers such as CD25 and/or CD69. Augmentation of immune stimulation by Cbl-b inhibitor administration was assessed by comparing the relative concentrations of cytokines in plasma, or the expression levels of activation markers on immune cells between appropriate groups (e.g. mice treated with Cbl-b inhibitor and 2 μg anti-CD3 antibody versus mice treated with vehicle and 2 μg anti-CD3 antibody).
(§2) Cbl-b inhibitors were tested to determine their ability to induce or enhance the level of cytokines (e.g. IL-2, IFNγ, and TNFα) in blood obtained from treated mice stimulated with an anti-CD3 antibody, which is indicative of modulation of the immune response. Cbl-b inhibitors were also tested to determine their ability to induce or enhance the expression of cell surface markers on T-cells (e.g. CD25 and/or CD69) isolated from treated mice stimulated with an anti-CD3 antibody, which is indicative of modulation of the immune response.
(§3) Readouts were reported as fold change over baseline. The fold change was calculated from the mean value of mice treated with Cbl-b inhibitor and 2 μg anti-CD3 antibody, with the baseline defined as the mean value of mice treated with vehicle and 2 μg anti-CD3 antibody. Increases in the percentage of cells with surface expression of CD25 on CD4+ T-cells or CD8+ T-cells greater than 1.5-fold over baseline at 24 hours were considered a positive response. Increases in the plasma concentration of IL-2, IFNγ, and TNFα greater than 1.5-fold over baseline at 8 hours post-stimulation were also considered a positive response (Table 8). Fold changes were ranked into bins according to their readouts as follows: A indicates >2.50, B indicates 2.01-2.50, C indicates 1.51-2.00, D indicates 1.00-1.50, and E indicates <1.00.

[1] = test system: IL-2, IFNγ, and TNFα in plasma; test: In vivo activity: plasma cytokine levels (IL-2, IFNγ, TNFα) in mice stimulated with anti-CD3 antibody; details: 2 μg anti-CD3 antibody, 8 hours post-stimulation
Protocol: as §1, §2, §3

primary human B cells = test: B cell activation assay (CD69 on anti-IgM stimulated B cells); type: cell-based; details: AUC of dose response curve (10 μM to 1 nM) of CD69 MFI normalized to DMSO control
Protocol: Peripheral blood mononuclear cells (PBMC) were obtained either: 1) by using Ficoll-Paque™ (GE Healthcare) for separation of peripheral blood hematopoietic cells from buffy coats of healthy human donors; or 2) directly from LeukoPak donations. Human primary B cells were isolated from the PBMCs utilizing negative selection with commercial kits following the manufacturer's protocol (StemCells Catalog #17954) to yield >95% CD20+ cells assessed by flow cytometry. Primary human B cells were plated at 0.7-1×10^5 per well in a 96-well plate with Cbl-b inhibitors over a dose ranging from 10 μM to 1 nM and incubated at 37° C. 5% CO2, with a final DMSO concentration of <0.5%. Cells were stimulated with anti-IgM for 20 hours at 37° C. 5% CO2. Surface activation markers on mature CD20^+ IgD^+ B cells were monitored by FACS using an anti-CD69 antibody (BD Biosciences).
Cbl-b inhibitors were tested to determine their ability to induce or enhance surface expression of cell surface markers on B cells (e.g., CD69), which is indicative of B cell activation.
Readouts were reported as area under curve (AUC) of the dose response curve of CD69 mean fluorescence intensity (MFI) normalized to the DMSO control. Baseline for this study was the measurement obtained from primary human B cells treated with DMSO in the presence of 2.5 μg/mL of anti-IgM-F(ab′)2. […] Compounds were ranked into bins according to their readouts as follows: A indicates ≤0.5, B indicates 0.5-1.00, C indicates 1.01-1.50, and D indicates ≥1.51.

Row | Compound | CD4+ T-cell % CD25+ (T-cells; 90 mpk IP BID) | CD8+ T-cell % CD25+ (T-cells; 90 mpk IP BID) | CD4+ T-cell % CD25+ (T-cells; 90 mpk IP TID) | CD8+ T-cell % CD25+ (T-cells; 90 mpk IP TID) | IFNγ plasma concentration ([1]; 90 mpk IP BID) | IL-2 plasma concentration ([1]; 90 mpk IP BID) | TNFα plasma concentration ([1]; 90 mpk IP BID) | IFNγ plasma concentration ([1]; 90 mpk IP TID) | IL-2 plasma concentration ([1]; 90 mpk IP TID) | TNFα plasma concentration ([1]; 90 mpk IP TID) | CD69 MFI AUC (primary human B cells)
1 | C[C@H](Sc1nncn1C)c1cccc(NC(=O)c2cccc(C(F)(F)F)n2)c1 [Compound 57a, (S)-N-(3-(1-((4-methyl-4H-1,2,4-triazol-3-yl)thio)ethyl)phenyl)-6-(trifluoromethyl)picolinamide] | D (D indicates 1.00-1.50) | E (E indicates <1.00) | D (D indicates 1.00-1.50) | C (C indicates 1.51-2.00) | D (D indicates 1.00-1.50) | A (A indicates >2.50) | A (A indicates >2.50) | B (B indicates 2.01-2.50) | A (A indicates >2.50) | A (A indicates >2.50) | B (B indicates 0.5-1.00)
2 | C[C@@H](Sc1nncn1C)c1cccc(NC(=O)c2cccc(C(F)(F)F)n2)c1 [Compound 57b, (R)-N-(3-(1-((4-methyl-4H-1,2,4-triazol-3-yl)thio)ethyl)phenyl)-6-(trifluoromethyl)picolinamide] | C (C indicates 1.51-2.00) | E (E indicates <1.00) | E (E indicates <1.00) | D (D indicates 1.00-1.50) | E (E indicates <1.00) | E (E indicates <1.00) | D (D indicates 1.00-1.50) | E (E indicates <1.00) | E (E indicates <1.00) | E (E indicates <1.00) | A (A indicates ≤0.5)
